Test results taken from patent publication US9701711B2, “Modulators of protease activated receptors” (THE UNIVERSITY OF QUEENSLAND, priority 2010, dated 2017).
Values joined by “and” are separate entries in the source; they are usually repeats but may differ in a detail not shown here. Identical values can stand only once. Like-named read-outs stand apart in the source and are kept apart here.

Legend:
PAR2 [1] = target: T1, PAR2 (Homo sapiens, UniProt P55085); test: PAR2 activation (agonist) by intracellular calcium mobilisation in HT29 cells; format: cell-based; set-up: Agonists of Ca^2+ release in HT29 cells; endogenous in cells; host or cells: HT29 (human cell line, cultured per ATCC information); conditions: for EC50: Fluo-3 fluorescence
T1 sequence (P55085 26-397): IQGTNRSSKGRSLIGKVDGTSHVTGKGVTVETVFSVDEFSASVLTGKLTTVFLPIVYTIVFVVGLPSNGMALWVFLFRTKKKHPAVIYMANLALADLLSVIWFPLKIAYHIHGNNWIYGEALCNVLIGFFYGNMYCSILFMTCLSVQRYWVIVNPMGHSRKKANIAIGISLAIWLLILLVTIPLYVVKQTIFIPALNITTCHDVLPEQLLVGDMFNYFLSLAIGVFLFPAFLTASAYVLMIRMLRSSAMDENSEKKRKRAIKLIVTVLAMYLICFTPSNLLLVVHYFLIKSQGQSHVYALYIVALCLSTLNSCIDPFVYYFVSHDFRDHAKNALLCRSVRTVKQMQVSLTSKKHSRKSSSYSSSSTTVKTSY
Source text: (§1) The ability of the compounds of the present invention to activate PAR2 may be assessed via calcium mobilisation assays. It is appreciated that compounds that activate the release of intracellular calcium from one type of cell are agonists or partial agonists, while those that inhibit such release may be antagonists. […] The general assay protocols may vary slightly depending on the chosen cell line. In general, during cell culture passage, cell dissociation solution (CDS, Sigma Aldrich) is used to replace trypsin to dissociate cells from surface. Lipopolysaccharide (LPS) and trypsin are purchased from Sigma Aldrich. […] ELISA sets are purchased from BD Pharmingen (San Jose, Calif.) and cytokine array kits are purchased from RayBiotecho (Norcross, Ga.).
(§2) Cells are seeded overnight in 96-well black walled, clear bottomed, plate at approximately 2×10^4 to 4×10^5 cells per well. […] The cells are then washed twice with HBSS and transferred to a Polarstar spectrotluorimeter (BMG, Durham N.C.).
HBSS is prepared in-house and all other reagents are purchased from Invitrogen, Carlsbad. Plates are supplied by DKSH, Zurich. Calcimycin (A23187, Invitrogen) is used to measure maximum fluorescence, with individual results normalized accordingly.
Three different concentrations of 6 added to HT29 cells at room temperature. Duplicate measurements were made for each data point, accordingly, each data point represents mean±SEM. Net changes in fluorescence were calculated as a percentage relative to the maximum response given by 100 μM of the PAR2 agonist 2f-LIGRLO-NH2.

PAR2 [2] = target: T1, PAR2; test: PAR2 agonist inhibition (antagonism) by intracellular Ca2+ release in HT29 cells; format: cell-based; set-up: Agonists of Ca^2+ release in HT29 cells; endogenous in cells; host or cells: HT29 (human cell line, cultured per ATCC information)
Source text: as §1, §2
The cells are prepared as outlined above then treated with the “putative” antagonist 30 min prior to the addition of either trypsin or a synthetic agonist at a concentration equal to the agonists ED80.
The cells were then treated with 1 μM of the PAR2 agonist 2f-LIGRLO-NH2 (FIG. 2A. n=5) or 100 nM Trypsin (FIG. 2B, n=1). Each data point represents mean±SEM. Net changes in fluorescence were calculated as a percentage relative to the maximum response given 1 μM 2f-LIGRLO-NH2 or 100 nM Trypsin. Changes in fluorescence (% response) were plotted against logarithmic compound concentrations. The half maximal inhibitory concentration (IC50) values were derived from the dose response curve using a nonlinear regression curve in Graphpad Prism v5.

[3] = read-out: EC50, agonist or partial agonist of Ca2+ release in HT29 cells
[4] = EC50, agonist or partial agonist of Ca2+ release in HT29 cells
[5] = HT29 cells, 30 min pre-incubation, then PAR2 agonist (1 μM 2f-LIGRLO-NH2), read-out: IC50, inhibition of Ca2+ release in HT29 cells

EC50 (PAR2 [1]; [3])	IC50 (PAR2 [2]; [5]) [µM]	Compound	further results
30 µM		CC[C@H](C)[C@H](NC(=O)[C@H](CC1CCCCC1)NC(=O)c1ccno1)C(=O)NCc1ccccc1 [Compound 3]	
10 µM		CC[C@H](C)[C@H](NC(=O)[C@H](CC1CCCCC1)NC(=O)c1ccno1)C(=O)NCc1ccc(OC)cc1 [Compound 4]	
10 µM		CC[C@H](C)[C@H](NC(=O)[C@H](CC1CCCCC1)NC(=O)c1ccno1)C(=O)NCc1ccccc1Cl [Compound 5]	
~30 µM and 30 µM		CC[C@H](C)[C@H](NC(=O)[C@H](CC1CCCCC1)NC(=O)c1ccno1)C(=O)NCc1ccccc1F [Compound 6, 5-isoxazoyl-Cha-Ile-aminomethyl-(2-fluoro)phenyl]	Emax at 30 µM (PAR2 [1]; HT-29, compound at 30 μM, room temperature, read-out: Response relative to the maximum response given by 100 μM 2f-LIGRLO-NH2): ≤ 50%
40 µM		CC[C@H](C)[C@H](NC(=O)[C@H](CC1CCCCC1)NC(=O)c1ccno1)C(=O)NCc1cccc(F)c1 [Compound 7]	
40 µM		CC[C@H](C)[C@H](NC(=O)[C@H](CC1CCCCC1)NC(=O)c1ccno1)C(=O)NCc1ccc(F)cc1 [Compound 8]	
10 µM		CC[C@H](C)[C@H](NC(=O)[C@H](CC1CCCCC1)NC(=O)c1ccno1)C(=O)NCc1ccccc1[N+](=O)[O-] [Compound 9]	
10 µM		CC[C@H](C)[C@H](NC(=O)[C@H](CC1CCCCC1)NC(=O)c1ccno1)C(=O)N1CCN(c2ccc(F)cc2)CC1 [Compound 10]	
5 to 10 µM		CC[C@H](C)[C@H](NC(=O)[C@H](CC1CCCCC1)NC(=O)c1ccno1)C(=O)N1CCc2cc(OC)c(OC)cc2C1 [Compound 11]	
1 to 6 µM		CC[C@H](C)[C@H](NC(=O)[C@H](CC1CCCCC1)NC(=O)c1ccno1)C(=O)N1CCC(NC(C)=O)(c2ccccc2)CC1 [Compound 12]	
1.8 µM		CC[C@H](C)[C@H](NC(=O)[C@H](CC1CCCCC1)NC(=O)c1ccno1)C(=O)N1CCC2(CC1)CN(S(C)(=O)=O)c1ccccc12 [Compound 13]	
		CC[C@H](C)[C@H](NC(=O)[C@H](CC1CCCCC1)NC(=O)c1ccno1)C(=O)N1CCC2(CC1)OC(=O)c1ccccc12 [Compound 14]	EC50 (PAR2 [1]; [4]): 1.3 µM
		CC[C@H](C)[C@H](NC(=O)[C@H](CC1CCCCC1)NC(=O)c1ccno1)C(=O)N1CCC2(CC1)CC(=O)c1ccccc1O2 [Compound 15]	EC50 (PAR2 [1]; [4]): 0.76 µM
5 to 7 µM		CC[C@H](C)[C@H](NC(=O)[C@H](CC1CCCCC1)NC(=O)c1ccno1)C(=O)N1CCC2(CC1)c1ccccc1C(O)C2O (some centres unmarked) [Compound 16]	
20 µM		CC[C@H](C)[C@H](NC(=O)[C@H](CC1CCCCC1)NC(=O)c1ccno1)C(=O)N1CCC2(CC1)c1ccccc1C(NCc1ccc(F)cc1)C2O (some centres unmarked) [Compound 17]	
	0.5 ± 0.1	CC[C@H](C)[C@H](NC(=O)[C@H](CC1CCCCC1)NC(=O)c1ccno1)C(=O)NCc1cccc(OC)c1 [Compound 19]	
	0.5 ± 0.1	CC[C@H](C)[C@H](NC(=O)[C@H](CC1CCCCC1)NC(=O)c1ccno1)C(=O)NCc1ccccc1C [Compound 20]	
	0.7 ± 0.1	CCOc1ccccc1CNC(=O)[C@@H](NC(=O)[C@H](CC1CCCCC1)NC(=O)c1ccno1)[C@@H](C)CC [Compound 21]	
	2	CCCOc1ccccc1CNC(=O)[C@@H](NC(=O)[C@H](CC1CCCCC1)NC(=O)c1ccno1)[C@@H](C)CC [Compound 22]	

EC50 (PAR2 [1]; [3])	IC50 (PAR2 [2]; [5]) [µM]	Compound	further results
	40	CCCCOc1ccccc1CNC(=O)[C@@H](NC(=O)[C@H](CC1CCCCC1)NC(=O)c1ccno1)[C@@H](C)CC [Compound 23]	
	1.3 ± 0.1	CC[C@H](C)[C@H](NC(=O)[C@H](CC1CCCCC1)NC(=O)c1ccno1)C(=O)NCc1ccccc1OC(C)C [Compound 24, 5-isoxazoyl-Cha-Ile-aminomethyl-(2-isopropoxy)phenyl]	
		CCC(C)Oc1ccccc1CNC(=O)[C@@H](NC(=O)[C@H](CC1CCCCC1)NC(=O)c1ccno1)[C@@H](C)CC (some centres unmarked) [Compound 25]	IC50 (PAR2 [2]): 1.6 ± 0.4 µM
	0.4 ± 0.1	CC[C@H](C)[C@H](NC(=O)[C@H](CC1CCCCC1)NC(=O)c1ccno1)C(=O)NCc1cccc2c1OCO2 [Compound 26, 5-isoxazoyl-Cha-Ile-aminomethyl-(1,3-dioxalane)phenyl]	
	1.4 ± 0.8	CC[C@H](C)[C@H](NC(=O)[C@H](CC1CCCCC1)NC(=O)c1ccno1)C(=O)NCc1ccc(Cl)c(Cl)c1 [Compound 27, 5-isoxazoyl-Cha-Ile-aminomethyl-(3,4-dichloro)phenyl]	
	1 to 2	CC[C@H](C)[C@H](NC(=O)[C@H](CC1CCCCC1)NC(=O)c1ccno1)C(=O)NCc1ccccc1C(F)(F)F [Compound 28]	
	0.7	CC[C@H](C)[C@H](NC(=O)[C@H](CC1CCCCC1)NC(=O)c1ccno1)C(=O)NCc1cccc(C(=O)N2CCC(NCCN)(C(=O)NCc3ccccc3)CC2)c1 [Compound 29]	
	10	CC[C@H](C)[C@H](NC(=O)[C@H](CC1CCCCC1)NC(=O)c1ccno1)C(=O)N1CCC(c2ccc(OC)cc2)CC1 [Compound 31]	
	5 to 10	CC[C@H](C)[C@H](NC(=O)[C@H](CC1CCCCC1)NC(=O)c1ccno1)C(=O)N1CCC(c2cc(OC)ccc2OC)CC1 [Compound 32]	
	10	CC[C@H](C)[C@H](NC(=O)[C@H](CC1CCCCC1)NC(=O)c1ccno1)C(=O)N1CCC(c2ccccc2C(F)(F)F)CC1 [Compound 33]	
	25	CC[C@H](C)[C@H](NC(=O)[C@H](CC1CCCCC1)NC(=O)c1ccno1)C(=O)N1CCC(c2ccccc2-c2ccccc2)CC1 [Compound 34]	
	8	CC[C@H](C)[C@H](NC(=O)[C@H](CC1CCCCC1)NC(=O)c1ccno1)C(=O)N1CCC(Cc2ccccc2)CC1 [Compound 35]	
	8.6 ± 2.6	CC[C@H](C)[C@H](NC(=O)[C@H](CC1CCCCC1)NC(=O)c1ccno1)C(=O)N1CCCC[C@H]1C(=O)NC(C)(C)C [Compound 36]	
	5 to 10	CC[C@H](C)[C@H](NC(=O)[C@H](CC1CCCCC1)NC(=O)c1ccno1)C(=O)N1CCC2(CCc3ccccc3O2)CC1 [Compound 37, 5-isoxazoyl-Cha-Ile-spiro[chroman-2,4′-piperidine]]	
	6	CC[C@H](C)[C@H](NC(=O)[C@H](CC1CCCCC1)NC(=O)c1ccno1)C(=O)N1CCCC(Nc2cccc(C(F)(F)F)c2)C1 (some centres unmarked) [Compound 38]	
	6.4	CC[C@H](C)[C@H](NC(=O)[C@H](CC1CCCCC1)NC(=O)c1ccno1)C(=O)N(C)Cc1ccccc1OC [Compound 39, 5-isoxazoyl-Cha-Ile-aminodimethyl-(2-methoxy)phenyl]	
	1.3	COc1ccccc1CNC(=O)[C@@H](NC(=O)[C@H](CC1CCCCC1)NC(=O)c1ccno1)[C@@H](C)OC [Compound 40, 5-isoxazoyl-Cha-Thr(Me)-aminomethyl-(2-methoxy)phenyl]	
	60	CC[C@H](C)[C@H](NC(=O)[C@H](CC1CCOCC1)NC(=O)c1ccno1)C(=O)N1CCC2(C=Cc3ccccc32)CC1 [Compound 43]	
